Source: patent US9738652B2, “Spiro urea compounds as RSV antiviral compounds” (priority 2014, dated 2017)

How the values were obtained:
[1] = tested on: rgRSV224 virus; test: Antiviral activity: rgRSV224 (GFP) replication in HeLa cells; settings: human respiratory syncytial virus, 72 h, read-out: RSV HELA pEC50 (converted)
Procedure: Black 384-well clear-bottom microtiter plates (Corning, Amsterdam, The Netherlands) were filled via acoustic drop ejection using the echo liquid handler (Labcyte, Sunnyvale, Calif.). 200 nL of compound stock solutions (100% DMSO) were transferred to the assay plates. 9 serial 4-fold dilutions of compound were made, creating per quadrant the same compound concentration. The assay was initiated by adding 10 μL of culture medium to each well (RPMI medium without phenol red, 10% FBS-heat inactivated, 0.04% gentamycin (50 mg/mL). All addition steps are done by using a multidrop dispenser (Thermo Scientific, Erembodegem, Belgium). Next, rgRSV224 virus (MOI=1) diluted in culture medium was added to the plates. rgRSV224 virus is an engineered virus that includes an additional GFP gene (Hallak L K, Spillmann D, Collins P L, Peeples M E. Glycosaminoglycan sulfation requirements for respiratory syncytial virus infection; Journal of virology (2000), 74(22), 10508-13) and was in-licensed from the NIH (Bethesda, Md., USA). Finally, 20 μL of a HeLa cell suspension (3,000 cells/well) were plated. Medium, virus- and mock-infected controls were included in each test. The wells contain 0.05% DMSO per volume. Cells were incubated at 37° C. in a 5% CO2 atmosphere. Three days post-virus exposure, viral replication was quantified by measuring GFP expression in the cells by an in house developed MSM laser microscope (Tibotec, Beerse, Belgium). The EC50 was defined as the 50% inhibitory concentration for GFP expression. In parallel, compounds were incubated for three days in a set of white 384-well microtiter plates (Corning) and the cytotoxicity of compounds in HeLa cells was determined by measuring the ATP content of the cells using the ATPlite kit (Perkin Elmer, Zaventem, Belgium) according to the manufacturer's instructions. The CC50 was defined as the 50% concentration for cytotoxicity.

[2] = Cytotoxicity in HeLa cells (ATPlite, CC50) used for selectivity index; settings: human
Procedure: The wells contain 0.05% DMSO per volume. Cells were incubated at 37° C. in a 5% CO2 atmosphere. […] In parallel, compounds were incubated for three days in a set of white 384-well microtiter plates (Corning) and the cytotoxicity of compounds in HeLa cells was determined by measuring the ATP content of the cells using the ATPlite kit (Perkin Elmer, Zaventem, Belgium) according to the manufacturer's instructions. The CC50 was defined as the 50% concentration for cytotoxicity.

SMILES: O=C(NC1CC(O)C1)N1CC2(C1)C(=O)N(Cc1nc3nc(Cl)ccc3n1CCCCF)c1ccccc12 (stereo not shown) [Co. No. 21, 1′-[[5-chloro-1-(4-fluorobutyl)imidazo[4,5-b]pyridin-2-yl]methyl]-N-(3-hydroxycyclobutyl)-2′-oxo-spiro[azetidine-3,3′-indoline]-1-carboxamide]
- EC50 [1]: 1410 pM
- selectivity ratio at 3 days [2]: > 71400

SMILES: O=C(NC1CCOCC1)N1CC2(C1)C(=O)N(Cc1nc3nc(Cl)ccc3n1CCCC(F)(F)F)c1ccccc12 [Co. No. 23, 1′-[[5-chloro-1-(4,4,4-trifluorobutyl)imidazo[4,5-b]pyridin-2-yl]methyl]-2′-oxo-N-tetrahydropyran-4-yl-spiro[azetidine-3,3′-indoline]-1-carboxamide]
- EC50 [1]: 1620 pM
- selectivity ratio at 3 days [2]: > 61800

SMILES: CC(C)NC(=O)N1CC2(C1)C(=O)N(Cc1nc3cc(Cl)ccc3n1CCCS(C)(=O)=O)c1ccccc12 [Co. No. 18, 1′-[[5-chloro-1-(3-methylsulfonylpropyl)benzimidazol-2-yl]methyl]-N-isopropyl-2′-oxo-spiro[azetidine-3,3′-indoline]-1-carboxamide]
- EC50 [1]: 20.4 pM
- selectivity ratio at 3 days [2]: > 4.93e+06

SMILES: CN1CCC(NC(=O)N2CC3(C2)C(=O)N(Cc2cc4cc(Cl)ccc4n2CCCC#N)c2ccccc23)CC1 [Co. No. 5, 1′-[[5-chloro-1-(3-cyanopropyl)indol-2-yl]methyl]-N-(1-methyl-4-piperidyl)-2′-oxo-spiro[azetidine-3,3′-indoline]-1-carboxamide]
- EC50 [1]: 3160 pM
- selectivity ratio at 3 days [2]: 10000

SMILES: CC(CO)NC(=O)N1CC2(C1)C(=O)N(Cc1cc3cc(Cl)ccc3n1CCCS(C)(=O)=O)c1ccccc12 (stereo not shown) [Co. No. 14, 1′-[[5-chloro-1-(3-methylsulfonylpropyl)indol-2-yl]methyl]-N-(2-hydroxy-1-methyl-ethyl)-2′-oxo-spiro[azetidine-3,3′-indoline]-1-carboxamide]
- EC50 [1]: 575 pM
- selectivity ratio at 3 days [2]: 98200

SMILES: CC(C)NC(=O)N1CC2(C1)C(=O)N(Cc1nc3nc(Cl)ccc3n1CCCCF)c1ccccc12 [Co. No. 20, 1′-[[5-chloro-1-(4-fluorobutyl)imidazo[4,5-b]pyridin-2-yl]methyl]-N-isopropyl-2′-oxo-spiro[azetidine-3,3′-indoline]-1-carboxamide]
- EC50 [1]: 1260 pM
- selectivity ratio at 3 days [2]: > 80200

SMILES: CC(C)NC(=O)N1CCC2(CC1)C(=O)N(Cc1cc3cc(Cl)ccc3n1CCCC#N)c1cnccc12 [Co. No. 28, 1′-[[5-chloro-1-(3-cyanopropyl)indol-2-yl]methyl]-N-isopropyl-2′-oxo-spiro[piperidine-4,3′-pyrrolo[2,3-c]pyridine]-1-carboxamide]
- EC50 [1]: 2140 pM
- selectivity ratio at 3 days [2]: 25400

SMILES: CS(=O)(=O)CCCn1c(CN2C(=O)C3(CN(C(=O)N[C@H]4C[C@H](O)C4)C3)c3ccccc32)cc2cc(Cl)ccc21 [Co. No. 11, 1′-[[5-chloro-1-(3-methylsulfonylpropyl)indol-2-yl]methyl]-N-(trans-3-hydroxycyclobutyl)-2′-oxo-spiro[azetidine-3,3′-indoline]-1-carboxamide]
- EC50 [1]: 245 pM
- selectivity ratio at 3 days [2]: 300000

SMILES: CC(C)NC(=O)N1CC2(C1)C(=O)N(Cc1cc3cc(Cl)ccc3n1CCCS(C)(=O)=O)c1ccccc12 [Co. No. 1, 1′-[[5-chloro-1-(3-methylsulfonylpropyl)indol-2-yl]methyl]-N-isopropyl-2′-oxo-spiro[azetidine-3,3′-indoline]-1-carboxamide]
- EC50 [1]: 89.1 pM
- selectivity ratio at 3 days [2]: 357000

SMILES: O=C(NC1CC(O)C1)N1CC2(C1)C(=O)N(Cc1nc3nc(Cl)ccc3n1CCCC(F)(F)F)c1ccccc12 (stereo not shown) [Co. No. 24, 1′[[5-chloro-1-(4,4,4-trifluorobutyl)imidazo[4,5-b]pyridin-2-yl]methyl]-N-(3-hydroxycyclobutyl)-2′-oxo-spiro[azetidine-3,3′-indoline]-1-carboxamide]
- EC50 [1]: 1320 pM
- selectivity ratio at 3 days [2]: > 75400

SMILES: CN(C)CCN(C)C(=O)N1CC2(C1)C(=O)N(Cc1cc3cc(Cl)ccc3n1CCCS(C)(=O)=O)c1ccccc12 [Co. No. 15, 1′-[[5-chloro-1-(3-methylsulfonylpropyl)indol-2-yl]methyl]-N-[2-(dimethylamino)ethyl]-N-methyl-2′-oxo-spiro[azetidine-3,3′-indoline]-1-carboxamide]
- EC50 [1]: 7590 pM
- selectivity ratio at 3 days [2]: 2570

SMILES: N#CCCCn1c(CN2C(=O)C3(CN(C(=O)N[C@H]4C[C@@H](O)C4)C3)c3ccccc32)cc2cc(Cl)ccc21 [Co. No. 8, 1′-[[5-chloro-1-(3-cyanopropyl)indol-2-yl]methyl]-N-(cis-3-hydroxycyclobutyl)-2′-oxo-spiro[azetidine-3,3′-indoline]-1-carboxamide]
- EC50 [1]: < 153 pM
- selectivity ratio at 3 days [2]: > 232000

SMILES: CS(=O)(=O)CCCn1c(CN2C(=O)C3(CN(C(=O)NCC(F)(F)F)C3)c3ccccc32)cc2cc(Cl)ccc21 [Co. No. 12, 1′-[[5-chloro-1-(3-methylsulfonylpropyl)indol-2-yl]methyl]-2′-oxo-N-(2,2,2-trifluoroethyl)spiro[azetidine-3,3′-indoline]-1-carboxamide]
- EC50 [1]: 269 pM
- selectivity ratio at 3 days [2]: 86900

SMILES: CNC(=O)N1CCC2(CC1)C(=O)N(Cc1cc3cc(Cl)ccc3n1CCCC#N)c1cnccc12 [Co. No. 25, 1′-[[5-chloro-1-(3-cyanopropyl)indol-2-yl]methyl]-N-methyl-2′-oxo-spiro[piperidine-4,3′-pyrrolo[2,3-c]pyridine]-1-carboxamide]
- EC50 [1]: 178 pM
- selectivity ratio at 3 days [2]: > 565000

SMILES: N#CCCCn1c(CN2C(=O)C3(CN(C(=O)NC4CC(O)C4)C3)c3ccccc32)cc2cc(Cl)ccc21 (stereo not shown) [Co. No. 7, 1′-[[5-chloro-1-(3-cyanopropyl)indol-2-yl]methyl]-N-(3-hydroxycyclobutyl)-2′-oxo-spiro[azetidine-3,3′-indoline]-1-carboxamide]
- EC50 [1]: 407 pM
- selectivity ratio at 3 days [2]: 103000

SMILES: CC(C)(CO)NC(=O)N1CC2(C1)C(=O)N(Cc1cc3cc(Cl)ccc3n1CCCS(C)(=O)=O)c1ccccc12 [Co. No. 13, 1′-[[5-chloro-1-(3-methylsulfonylpropyl)indol-2-yl]methyl]-N-(2-hydroxy-1,1-dimethyl-ethyl)-2′-oxo-spiro[azetidine-3,3′-indoline]-1-carboxamide]
- EC50 [1]: 1000 pM
- selectivity ratio at 3 days [2]: 43400

SMILES: CC(C)NC(=O)N1CCC2(CC1)C(=O)N(Cc1nc3cc(Cl)ccc3n1CCCC#N)c1cnccc12 [Co. No. 29, 1′-[[5-chloro-1-(3-cyanopropyl)benzimidazol-2-yl]methyl]-N-isopropyl-2′-oxo-spiro[piperidine-4,3′-pyrrolo[2,3-c]pyridine]-1-carboxamide]
- EC50 [1]: 24.5 pM
- selectivity ratio at 3 days [2]: > 4.11e+06

SMILES: CC(C)(C)OC(=O)N1CCC(NC(=O)N2CC3(C2)C(=O)N(Cc2cc4cc(Cl)ccc4n2CCCC#N)c2ccccc23)CC1 [Co. No. 2, tert-butyl 4-[[1′-[[5-chloro-1-(3-cyanopropyl)indol-2-yl]methyl]-2′-oxo-spiro[azetidine-3,3′-indoline]-1-carbonyl]amino]piperidine-1-carboxylate]
- EC50 [1]: 2000 pM
- selectivity ratio at 3 days [2]: > 50000

SMILES: N#CCCCn1c(CN2C(=O)C3(CN(C(=O)N[C@H]4C[C@H](O)C4)C3)c3ccccc32)cc2cc(Cl)ccc21 [Co. No. 9, 1′-[[5-chloro-1-(3-cyanopropyl)indol-2-yl]methyl]-N-(trans-3-hydroxycyclobutyl)-2′-oxo-spiro[azetidine-3,3′-indoline]-1-carboxamide]
- EC50 [1]: < 153 pM
- selectivity ratio at 3 days [2]: > 254000

SMILES: CC(C)NC(=O)N1CC2(C1)C(=O)N(Cc1nc3cc(Cl)ccc3n1CCCC#N)c1ccccc12 [Co. No. 19, 1′-[[5-chloro-1-(3-cyanopropyl)benzimidazol-2-yl]methyl]-N-isopropyl-2′-oxo-spiro[azetidine-3,3′-indoline]-1-carboxamide]
- EC50 [1]: 91.2 pM
- selectivity ratio at 3 days [2]: > 1.11e+06

SMILES: CN(C)CCNC(=O)N1CC2(C1)C(=O)N(Cc1cc3cc(Cl)ccc3n1CCCS(C)(=O)=O)c1ccccc12 [Co. No. 17, 1′-[[5-chloro-1-(3-methylsulfonylpropyl)indol-2-yl]methyl]-N-[2-(dimethylamino)ethyl]-2′-oxo-spiro[azetidine-3,3′-indoline]-1-carboxamide]
- EC50 [1]: 1260 pM
- selectivity ratio at 3 days [2]: 39300

SMILES: CS(=O)(=O)CCCn1c(CN2C(=O)C3(CN(C(=O)N[C@H]4C[C@@H](O)C4)C3)c3ccccc32)cc2cc(Cl)ccc21 [Co. No. 10, 1′-[[5-chloro-1-(3-methylsulfonylpropyl)indol-2-yl]methyl]-N-(cis-3-hydroxycyclobutyl)-2′-oxo-spiro[azetidine-3,3′-indoline]-1-carboxamide]
- EC50 [1]: < 170 pM
- selectivity ratio at 3 days [2]: > 505000

SMILES: CS(=O)(=O)CCCn1c(CN2C(=O)C3(CN(C(=O)NCCN4CCOCC4)C3)c3ccccc32)cc2cc(Cl)ccc21 [Co. No. 16, 1′-[[5-chloro-1-(3-methylsulfonylpropyl)indol-2-yl]methyl]-N-(2-morpholinoethyl)-2′-oxo-spiro[azetidine-3,3′-indoline]-1-carboxamide]
- EC50 [1]: 339 pM
- selectivity ratio at 3 days [2]: 159000

SMILES: CC(C)NC(=O)N1CCC2(CC1)C(=O)N(Cc1cc3cc(Cl)ccc3n1CCCS(C)(=O)=O)c1cnccc12 [Co. No. 27, 1′-[[5-chloro-1-(3-methylsulfonylpropyl)indol-2-yl]methyl]-N-isopropyl-2′-oxo-spiro[piperidine-4,3′-pyrrolo[2,3-c]pyridine]-1-carboxamide]
- EC50 [1]: 257 pM
- selectivity ratio at 3 days [2]: 300000

SMILES: N#CCCCn1c(CN2C(=O)C3(CN(C(=O)NC4CCNCC4)C3)c3ccccc32)cc2cc(Cl)ccc21 [Co. No. 3, 1′-[[5-chloro-1-(3-cyanopropyl)indol-2-yl]methyl]-2′-oxo-N-(4-piperidyl)spiro[azetidine-3,3′-indoline]-1-carboxamide]
- EC50 [1]: 631 pM
- selectivity ratio at 3 days [2]: 158000

SMILES: N#CCCCn1c(CN2C(=O)C3(CN(C(=O)NC4CCN(CC(F)(F)F)CC4)C3)c3ccccc32)cc2cc(Cl)ccc21 [Co. No. 4, 1′-[[5-chloro-1-(3-cyanopropyl)indol-2-yl]methyl]-2′-oxo-N-[1-(2,2,2-trifluoroethyl)-4-piperidyl]spiro[azetidine-3,3′-indoline]-1-carboxamide]
- EC50 [1]: 1000 pM
- selectivity ratio at 3 days [2]: 100000
